Measurements taken from patent US9029337B2, “Modulation of factor 7 expression” (Isis Pharmaceuticals, Inc., priority 2007, dated 2015).
Strand notation (5' to 3'): a small letter for the sugar, then the base; units joined by * are phosphorothioate-linked, units joined directly phosphodiester-linked; [ ] holds rarer units or linkages, { } end groups; capitals alone tell only the bases. e = 2'-O-(2-methoxyethyl) (MOE); [5mC] = 5-methylcytosine; d = 2'-deoxy (DNA)

system: human Factor 7 mRNA; experiment: Antisense inhibition of human Factor 7 with short (14-mer) oligonucleotides in HepB3 cells, electroporation 1,000 nM; type: cell-based; details: electroporation, 1,000 nM antisense oligonucleotide, approximately 24 hours, Factor 7 mRNA relative to untreated control cells
Procedure, shortened: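 14-mer 2-10-2 MOE gapmers (full phosphorothioate, 5-methyl-C) electroporated at 1,000 nM into HepB3 cells at 20,000 cells/well. After ~24 h, Factor 7 mRNA by real-time RT-PCR, normalized to RiboGreen total RNA. Reported as % inhibition relative to untreated cells.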

Substance | % Inhibition [%]
435771 (antisense eG*eT*d[5mC]*dA*dT*dA*dA*dG*dG*d[5mC]*d[5mC]*dA*eT*eG) [compound 435771] | 13
435812 (antisense eG*e[5mC]*dT*dG*dA*dG*d[5mC]*dA*dG*dA*dG*dA*eT*e[5mC]) [compound 435812] | 35
435810 (antisense e[5mC]*eT*dG*dA*dG*dG*dG*dA*dA*dT*dG*dT*eT*eG) [compound 435810] | 1
435723 (antisense eG*e[5mC]*d[5mC]*dA*dG*d[5mC]*dA*dG*dA*dT*d[5mC]*dA*e[5mC]*eG) [compound 435723] | 68
435726 (antisense eG*e[5mC]*dA*dA*dT*dG*dA*dA*dG*dG*d[5mC]*dA*eG*eA) [compound 435726] | 26
435759 (antisense eG*eA*dG*d[5mC]*d[5mC]*dA*d[5mC]*dA*dG*dA*dG*d[5mC]*e[5mC]*eT) [compound 435759] | 11
435722 (antisense eT*eG*dG*dG*d[5mC]*dT*dT*dG*dG*d[5mC]*dT*dG*eA*eA) [compound 435722] | 50
435740 (antisense eT*e[5mC]*dA*dT*dT*dT*d[5mC]*dA*dG*dT*dG*dA*eT*eG) [compound 435740] | 0
435782 (antisense e[5mC]*eG*dT*dG*d[5mC]*dG*d[5mC]*dT*d[5mC]*dA*dG*d[5mC]*eT*e[5mC]) [compound 435782] | 36
435679 (antisense e[5mC]*eG*d[5mC]*dT*dG*dA*dG*dG*dT*d[5mC]*dG*dT*eG*e[5mC]) [compound 435679] | 62
435844 (antisense eT*eG*dG*d[5mC]*d[5mC]*dA*dG*dT*dG*dG*d[5mC]*d[5mC]*eT*e[5mC]) [compound 435844] | 30
435806 (antisense eT*eG*dA*d[5mC]*d[5mC]*d[5mC]*d[5mC]*dA*d[5mC]*dA*dG*dG*eG*eA) [compound 435806] | 7
435807 (antisense e[5mC]*eA*dG*dT*dA*d[5mC]*dT*dT*d[5mC]*d[5mC]*d[5mC]*dA*e[5mC]*eG) [compound 435807] | 35
435479 (antisense e[5mC]*eA*d[5mC]*dT*d[5mC]*d[5mC]*d[5mC]*d[5mC]*dT*dT*dT*dG*eG*eG) [compound 435479] | 9
435498 (antisense eT*eG*dG*dG*dA*dG*dA*d[5mC]*d[5mC]*d[5mC]*dT*dG*eG*eT) [compound 435498] | 37
435823 (antisense eT*eG*dA*dG*dT*d[5mC]*d[5mC]*d[5mC]*dA*dG*dG*d[5mC]*eT*eG) [compound 435823] | 41
435840 (antisense eG*eG*dG*d[5mC]*d[5mC]*d[5mC]*dG*d[5mC]*d[5mC]*dA*d[5mC]*dT*eG*eG) [compound 435840] | 0
435646 (antisense eT*eA*dG*dG*dA*d[5mC]*dT*dG*dG*dA*dG*d[5mC]*eT*eG) [compound 435646] | 13
435648 (antisense eG*eA*dA*dG*d[5mC]*dA*dG*dA*dT*dA*dT*dA*eG*eG) [compound 435648] | 0
435763 (antisense eA*eG*dG*dA*dG*dA*dA*dA*dG*dG*dT*d[5mC]*eA*eG) [compound 435763] | 2

Substance | % Inhibition [%]
435662 (antisense eT*eG*dG*dA*dT*dA*dT*dT*d[5mC]*dA*dA*d[5mC]*eT*eG) [compound 435662] | 19
435504 (antisense eA*eT*dG*dT*dA*d[5mC]*dT*dG*dG*dG*dA*dG*eA*e[5mC]) [compound 435504] | 8
435478 (antisense eG*eA*dG*dG*d[5mC]*dA*d[5mC]*dA*d[5mC]*dT*dG*dG*eT*e[5mC]) [compound 435478] | 43
435803 (antisense eG*eA*dG*dA*dA*dT*dT*dG*d[5mC]*d[5mC]*d[5mC]*dA*eG*eG) [compound 435803] | 0
435805 (antisense eT*eG*dA*dA*dT*dT*dA*d[5mC]*dT*dG*dA*dA*e[5mC]*e[5mC]) [compound 435805] | 0
435669 (antisense eG*eG*dA*d[5mC]*d[5mC]*dT*dG*d[5mC]*d[5mC]*dA*dT*dG*eG*eA) [compound 435669] | 36
435685 (antisense eA*eG*dG*dA*d[5mC]*d[5mC]*dA*d[5mC]*dG*dG*dG*d[5mC]*eT*eG) [compound 435685] | 40
435493 (antisense eG*eA*d[5mC]*d[5mC]*d[5mC]*dT*dG*dG*dT*dG*dT*dA*e[5mC]*eA) [compound 435493] | 58
435735 (antisense eT*eG*dG*dT*dG*dA*dT*dG*d[5mC]*dT*dT*d[5mC]*eT*eG) [compound 435735] | 81
435659 (antisense eT*eA*d[5mC]*d[5mC]*d[5mC]*d[5mC]*dT*d[5mC]*dG*dT*dG*dG*e[5mC]*eA) [compound 435659] | 18
435847 (antisense eT*eG*dG*dT*dG*dT*dG*d[5mC]*dA*d[5mC]*dA*d[5mC]*eA*eT) [compound 435847] | 36
435825 (antisense e[5mC]*eT*dG*dG*dT*dT*dT*dT*dG*dG*dA*dG*eG*eA) [compound 435825] | 0
435654 (antisense eG*e[5mC]*d[5mC]*dG*dT*dT*d[5mC]*dT*d[5mC]*dG*dT*dT*e[5mC]*eA) [compound 435654] | 71
435791 (antisense eA*eT*dG*dA*dG*dA*dA*dA*dT*dG*d[5mC]*dT*eT*eT) [compound 435791] | 0
435699 (antisense eG*e[5mC]*d[5mC]*d[5mC]*d[5mC]*dA*dG*d[5mC]*dT*dG*dA*d[5mC]*eG*eA) [compound 435699] | 48
435644 (antisense eT*eG*dG*dT*d[5mC]*d[5mC]*dT*dT*dG*d[5mC]*dA*dG*eG*eA) [compound 435644] | 30
435660 (antisense e[5mC]*e[5mC]*dG*dT*d[5mC]*dT*dG*d[5mC]*d[5mC]*dA*dG*d[5mC]*eA*eG) [compound 435660] | 58
435729 (antisense eA*e[5mC]*dA*dG*d[5mC]*dA*d[5mC]*dA*d[5mC]*dA*dT*dG*eG*eA) [compound 435729] | 30
435490 (antisense e[5mC]*e[5mC]*dT*dG*dG*dT*dG*dT*dA*d[5mC]*dA*d[5mC]*e[5mC]*e[5mC]) [compound 435490] | 49
435781 (antisense eA*e[5mC]*d[5mC]*dA*d[5mC]*dG*d[5mC]*dG*dG*dT*dG*dG*eT*eG) [compound 435781] | 0

Substance | % Inhibition [%]
435821 (antisense eA*eG*dT*d[5mC]*dA*dG*dT*dA*d[5mC]*dA*dG*dA*e[5mC]*eA) [compound 435821] | 0
435824 (antisense e[5mC]*e[5mC]*dT*dA*dA*dA*dG*dA*dT*dG*dA*dA*eT*e[5mC]) [compound 435824] | 21
435494 (antisense eA*eG*dA*d[5mC]*d[5mC]*d[5mC]*dT*dG*dG*dT*dG*dT*eA*e[5mC]) [compound 435494] | 47
435846 (antisense eT*eG*dG*dA*dG*dA*dG*dA*d[5mC]*d[5mC]*dA*dA*eT*eG) [compound 435846] | 7
435750 (antisense e[5mC]*eA*d[5mC]*dT*dG*d[5mC]*dA*dG*d[5mC]*d[5mC]*dA*dG*eG*eG) [compound 435750] | 14
435816 (antisense eT*e[5mC]*d[5mC]*dA*dA*dA*dG*dG*dA*d[5mC]*dA*dA*eG*eG) [compound 435816] | 4
435721 (antisense eT*eA*dA*dG*dG*dA*dG*dG*d[5mC]*dT*d[5mC]*dA*eG*e[5mC]) [compound 435721] | 12
435831 (antisense eG*eA*dT*d[5mC]*dT*dT*d[5mC]*dA*d[5mC]*dA*dT*dA*eG*e[5mC]) [compound 435831] | 51
435698 (antisense e[5mC]*e[5mC]*dT*dT*dG*d[5mC]*dA*dG*dG*dA*dG*dT*e[5mC]*e[5mC]) [compound 435698] | 61
435678 (antisense eA*eG*dG*dT*d[5mC]*dG*dT*dG*d[5mC]*dT*d[5mC]*dG*e[5mC]*e[5mC]) [compound 435678] | 67
435696 (antisense e[5mC]*eA*dG*dA*dA*d[5mC]*dA*dT*dG*dT*dA*d[5mC]*eT*e[5mC]) [compound 435696] | 10
435492 (antisense eA*e[5mC]*d[5mC]*d[5mC]*dT*dG*dG*dT*dG*dT*dA*d[5mC]*eA*e[5mC]) [compound 435492] | 45
435815 (antisense e[5mC]*eT*d[5mC]*dT*dT*d[5mC]*d[5mC]*dG*dA*dG*d[5mC]*dA*eG*e[5mC]) [compound 435815] | 59
435817 (antisense e[5mC]*eT*dG*dA*dG*d[5mC]*dT*dT*dG*dG*d[5mC]*dA*e[5mC]*e[5mC]) [compound 435817] | 39
435500 (antisense eA*e[5mC]*dT*dG*dG*dG*dA*dG*dA*d[5mC]*d[5mC]*d[5mC]*eT*eG) [compound 435500] | 49
435753 (antisense eA*eA*dG*dA*dG*dT*dG*d[5mC]*dA*dG*d[5mC]*dT*eT*eG) [compound 435753] | 9
435647 (antisense eA*eG*dA*dT*dA*dT*dA*dG*dG*dA*d[5mC]*dT*eG*eG) [compound 435647] | 0
435496 (antisense eG*eG*dA*dG*dA*d[5mC]*d[5mC]*d[5mC]*dT*dG*dG*dT*eG*eT) [compound 435496] | 47
435484 (antisense e[5mC]*e[5mC]*dT*dG*dG*dG*dT*d[5mC]*dA*dT*d[5mC]*dA*eG*e[5mC]) [compound 435484] | 45
